From US9822124B2, “Bicyclic heteroaromatic carboxamide compounds useful as Pim kinase inhibitors” (Incyte Corporation, priority 2014, dated 2017) come the findings set out here.

In general, IC50 refers to the concentration that gives 50% inhibition.

Molecules are shown by their SMILES.

Common to all, as to type: biochemical
One experiment concerns the target Pim-2 (Homo sapiens (Human), UniProt Q9P1W9). In words: Pim-2 kinase assay (TR-FRET, Fluorescein-labeled CREBtide peptide substrate). As to conditions: 1 mM ATP; read-out: Pim2 IC50. Here is the method: Pim-2 kinase assay—20 μL reactions were run in white 384 well polystyrene plates dotted with 0.8 μL compound/DMSO in the assay buffer (50 mM Tris, pH 7.5, 0.01% Tween-20, 5 mM MgCl2, 0.01% BSA, 5 mM DTT), containing 0.05 μM Fluorescein-labeled CREBtide peptide substrate (Invitrogen PV3508), 1 mM ATP, and 1 nM enzyme (Invitrogen PV3649) for 2 h at 25° C. Reactions were stopped by addition of 10 μL TR-FRET Dilution Buffer (Invitrogen PV3574) with 30 mM EDTA and 1.5 nM LanthaScreen Tb-CREB pSer133 antibody (Invitrogen PV3566). After 30 min. incubation at room temperature, plates were read on a PHERAstar FS plate reader (BMG Labtech).

The target in another experiment is Pim-3 (Homo sapiens (Human), UniProt Q86V86). In words: Pim-3 kinase assay (AlphaScreen, Biotin-labeled BAD peptide substrate). As to conditions: 1 mM ATP; read-out: Pim3 IC50. On the procedure:
(§1) Pim-1 and Pim-3 kinase assays—20 μL reactions were run in white 384 well polystyrene plates dotted with 0.8 μL compound/DMSO in the assay buffer (50 mM Tris, pH 7.5, 0.01% Tween-20, 5 mM MgCl2, 0.01% BSA, 5 mM DTT), containing 0.05 μM Biotin-labeled BAD peptide substrate (AnaSpec 62269), 1 mM ATP, and […] (Pim-1, Invitrogen PV3503) or […] (Pim-3, Millipore 14-738) enzyme for 1 h at 25° C. Reactions were stopped by addition of 10 μL STOP Buffer (150 mM Tris, pH=7.5, 150 mM NaCl, 75 mM EDTA, 0.01% Tween-20, 0.3% BSA) supplemented with Phospho-Bad (Ser112) Antibody (Cell Signaling 9291) diluted 666-fold, and Streptavidin donor beads (PerkinElmer 6760002) along with Protein-A acceptor beads (PerkinElmer 6760137) at 15 μg/mL each. Supplementation of the STOP buffer with beads and stopping the reactions were done under reduced light. Prior to the stopping reactions STOP buffer with beads was preincubated for 1 h in the dark at room temperature. After stopping the reactions, plates were incubated for 1 h in the dark at room temperature before reading on a PHERAstar FS plate reader (BMG Labtech) under reduced light.
Background: Alpha assays give light when donor and acceptor beads are brought close together.

The target of another experiment is Pim-1 (Homo sapiens (Human), UniProt P11309). Briefly: Pim-1 kinase assay (AlphaScreen, Biotin-labeled BAD peptide substrate). The settings on record: 1 mM ATP; read-out: Pim1 IC50. On the procedure: as §1
Pim-1, sequence (P11309 whole entry): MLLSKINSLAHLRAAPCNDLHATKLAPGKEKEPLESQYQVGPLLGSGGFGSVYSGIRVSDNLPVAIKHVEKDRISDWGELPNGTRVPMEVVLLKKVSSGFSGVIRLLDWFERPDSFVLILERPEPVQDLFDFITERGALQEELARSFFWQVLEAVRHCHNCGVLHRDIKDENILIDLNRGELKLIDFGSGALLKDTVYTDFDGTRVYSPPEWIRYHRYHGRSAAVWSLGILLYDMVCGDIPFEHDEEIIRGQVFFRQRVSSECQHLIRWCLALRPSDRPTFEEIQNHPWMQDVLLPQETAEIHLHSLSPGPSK

Pim-2, sequence (Q9P1W9 whole entry): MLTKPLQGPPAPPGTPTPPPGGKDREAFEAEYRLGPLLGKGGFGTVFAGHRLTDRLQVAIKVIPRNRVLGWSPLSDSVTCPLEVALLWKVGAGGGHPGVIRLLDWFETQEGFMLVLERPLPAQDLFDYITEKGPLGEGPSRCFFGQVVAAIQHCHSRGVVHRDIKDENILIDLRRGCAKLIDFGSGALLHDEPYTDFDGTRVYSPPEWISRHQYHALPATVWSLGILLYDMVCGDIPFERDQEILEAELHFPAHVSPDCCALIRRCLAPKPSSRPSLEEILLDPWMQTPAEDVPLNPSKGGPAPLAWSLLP

In the case of `C[C@@H]1C[C@H](N)CN(c2ccncc2NC(=O)c2ccc3sc(-c4ccc(N5CCOCC5)nc4)cc3n2)C1` [Example 56, N-(4-((3S,5R)-3-Amino-5-methylpiperidin-1-yl)pyridin-3-yl)-2-(6-morpholinopyridin-3-yl)thieno[3,2-b]pyridine-5-carboxamide], the IC50 at Pim-2 was 0.1 to 1 µM; at Pim-3 it was no more than 0.01 µM; on Pim-1, no more than 0.01 µM.

As for `C[C@H]1CN(c2ccncc2NC(=O)c2ccc3sc(-c4ccccc4F)cc3n2)C[C@@H](N)[C@@H]1O` [Example 41, N-(4-((3R,4R,5S)-3-Amino-4-hydroxy-5-methylpiperidin-1-yl)pyridin-3-yl)-2-(2-fluorophenyl)thieno[3,2-b]pyridine-5-carboxamide], the IC50 at Pim-2 is 0.1 to 1 µM; on Pim-3, no more than 0.01 µM; on Pim-1 it was no more than 0.01 µM.

Consider `COc1cc(F)c(-c2cc3nc(C(=O)Nc4cnccc4N4C[C@H](C)C[C@H](N)C4)ccc3s2)c(F)c1` [Example 57, N-(4-((3S,5R)-3-Amino-5-methylpiperidin-1-yl)pyridin-3-yl)-2-(2,6-difluoro-4-methoxyphenyl)thieno[3,2-b]pyridine-5-carboxamide], for which the figures for the IC50 at Pim-2, on Pim-3 and at Pim-1 were 0.1 to 1 µM, no more than 0.01 µM and no more than 0.01 µM, respectively.

For `C[C@H]1CN(c2ccncc2NC(=O)c2ccc3sc(-c4c(F)cccc4F)cc3n2)C[C@@H](N)[C@@H]1O` [Example 40, N-(4-((3R,4R,5S)-3-Amino-4-hydroxy-5-methylpiperidin-1-yl)pyridin-3-yl)-2-(2,6-difluorophenyl)thieno[3,2-b]pyridine-5-carboxamide], the IC50 is 0.1 to 1 µM on Pim-2, no more than 0.01 µM at Pim-3 and no more than 0.01 µM at Pim-1.

With `C[C@@H]1C[C@H](N)CN(c2ccncc2NC(=O)c2ccc3oc(-c4c(F)cccc4F)cc3n2)C1` [Example 4, N-(4-((3S,5R)-3-Amino-5-methylpiperidin-1-yl)pyridin-3-yl)-2-(2,6-difluorophenyl)furo[3,2-b]pyridine-5-carboxamide], the results for the IC50 at Pim-2, at Pim-3 and on Pim-1 were greater than 2 µM, 0.01 to 0.05 µM and no more than 0.01 µM, respectively.

Take `CCCc1cc2nc(C(=O)Nc3cnccc3N3C[C@H](C)C[C@H](N)C3)ccc2s1` [Example 50, N-(4-((3S,5R)-3-Amino-5-methylpiperidin-1-yl)pyridin-3-yl)-2-propylthieno[3,2-b]pyridine-5-carboxamide]: the values for the IC50 on Pim-2, at Pim-3 and on Pim-1 were no more than 0.1 µM, no more than 0.01 µM and no more than 0.01 µM, respectively.

In the case of `C[C@@H]1C[C@H](N)CN(c2ccncc2NC(=O)c2ccc3occ(-c4cc(F)nc(F)c4)c3n2)C1` [Example 27, N-(4-((3S,5R)-3-Amino-5-methylpiperidin-1-yl)pyridin-3-yl)-3-(2,6-difluoropyridin-4-yl)furo[3,2-b]pyridine-5-carboxamide], the half-maximal inhibitory concentration (IC50) at Pim-2 is greater than 2 µM; at Pim-3 it was greater than 0.04 µM; on Pim-1 it was 0.01 to 0.05 µM.

In the case of `C[C@@H]1C[C@H](N)C[C@H](c2ccncc2NC(=O)c2ccn3ncc(-c4c(F)cccc4F)c3n2)C1` [Example 83, N-{4-[(1R,3S,5S)-3-Amino-5-methylcyclohexyl]pyridin-3-yl}-3-(2,6-difluorophenyl)pyrazolo[1,5-a]pyrimidine-5-carboxamide], the IC50 at Pim-2 is 0.1 to 1 µM; at Pim-3, no more than 0.01 µM; at Pim-1 it was no more than 0.01 µM.

Turning to `C[C@@H]1C[C@H](N)CN(c2ccncc2NC(=O)c2ccc3occ(-c4cncc(C#N)c4)c3n2)C1` [Example 26, N-(4-((3S,5R)-3-Amino-5-methylpiperidin-1-yl)pyridin-3-yl)-3-(5-cyanopyridin-3-yl)furo[3,2-b]pyridine-5-carboxamide], the values for the IC50 on Pim-2, at Pim-3 and at Pim-1 were greater than 2 µM, 0.01 to 0.05 µM and no more than 0.01 µM, respectively.

Consider `C[C@@H]1C[C@H](N)CN(c2ccncc2NC(=O)c2ccc3occ(-c4ccccc4F)c3n2)C1` [Example 21, N-(4-((3S,5R)-3-Amino-5-methylpiperidin-1-yl)pyridin-3-yl)-3-(2-fluorophenyl)furo[3,2-b]pyridine-5-carboxamide], for which the IC50 on Pim-2 was no more than 0.1 µM; at Pim-3 it was no more than 0.01 µM; on Pim-1, no more than 0.01 µM.

As for `Cc1cc2nc(C(=O)Nc3cnccc3N3C[C@H](C)C[C@H](N)C3)ccc2s1` [Example 61, N-(4-((3S,5R)-3-Amino-5-methylpiperidin-1-yl)pyridin-3-yl)-2-methylthieno[3,2-b]pyridine-5-carboxamide], the figures for the IC50 on Pim-2, on Pim-3 and at Pim-1 were 0.1 to 1 µM, no more than 0.01 µM and no more than 0.01 µM, respectively.

Consider `C[C@@H]1C[C@H](N)CN(c2ccncc2NC(=O)c2ccc3scc(-c4cnn(C)c4)c3n2)C1` [Example 63, N-(4-((3S,5R)-3-Amino-5-methylpiperidin-1-yl)pyridin-3-yl)-3-(1-methyl-1H-pyrazol-4-yl)thieno[3,2-b]pyridine-5-carboxamide], for which the results for the IC50 at Pim-2, at Pim-3 and at Pim-1 were greater than 2 µM, greater than 0.04 µM and no more than 0.01 µM, respectively.

Regarding `C[C@@H]1C[C@H](N)CN(c2ccncc2NC(=O)c2ccc3sc(C4CC4)nc3n2)C1` [Example 80, N-(4-((3S,5R)-3-Amino-5-methylpiperidin-1-yl)pyridin-3-yl)-2-cyclopropylthiazolo[4,5-b]pyridine-5-carboxamide], the IC50 on Pim-2 is 0.1 to 1 µM; on Pim-3, no more than 0.01 µM; at Pim-1, no more than 0.01 µM.

Consider `COc1ccc(-c2coc3ccc(C(=O)Nc4cnccc4N4C[C@@H](N)[C@H](O)[C@@H](C)C4)nc23)cn1` [Example 14, N-(4-((3R,4R,5S)-3-Amino-4-hydroxy-5-methylpiperidin-1-yl)pyridin-3-yl)-3-(6-methoxypyridin-3-yl)furo[3,2-b]pyridine-5-carboxamide], for which the IC50 on Pim-2 was 1 to 10 µM; on Pim-3, 0.01 to 0.05 µM; on Pim-1 it was no more than 0.01 µM.

Regarding `C[C@@H]1C[C@H](N)CN(c2ccncc2NC(=O)c2ccc3occ(C4CCOCC4)c3n2)C1` [Example 25, N-(4-((3S,5R)-3-Amino-5-methylpiperidin-1-yl)pyridin-3-yl)-3-(tetrahydro-2H-pyran-4-yl)furo[3,2-b]pyridine-5-carboxamide], the IC50 was 0.1 to 1 µM on Pim-2, no more than 0.01 µM on Pim-3 and no more than 0.01 µM at Pim-1.

Turning to `CCCc1cc2nc(C(=O)Nc3cnccc3N3C[C@@H](N)[C@H](O)[C@@H](C)C3)ccc2s1` [Example 38, N-(4-((3R,4R,5S)-3-Amino-4-hydroxy-5-methylpiperidin-1-yl)pyridin-3-yl)-2-propylthieno[3,2-b]pyridine-5-carboxamide], the IC50 is 0.1 to 1 µM at Pim-2, no more than 0.01 µM at Pim-3 and no more than 0.01 µM on Pim-1.

For the compound `C[C@@H]1C[C@H](N)CN(c2ccncc2NC(=O)c2ccc3occ(C4CCOC4)c3n2)C1` (mixture of isomers) [Example 31, N-(4-((3S,5R)-3-Amino-5-methylpiperidin-1-yl)pyridin-3-yl)-3-(tetrahydrofuran-3-yl)furo[3,2-b]pyridine-5-carboxamide], the results for the IC50 at Pim-2, on Pim-3 and at Pim-1 were 0.1 to 1 µM, no more than 0.01 µM and no more than 0.01 µM, respectively.

In the case of `C[C@H]1CN(c2ccncc2NC(=O)c2ccc3sc(C4CC4)nc3n2)C[C@@H](N)[C@@H]1O` [Example 79, N-{4-[(3R,4R,5S)-3-Amino-4-hydroxy-5-methylpiperidin-1-yl]pyridin-3-yl}-2-cyclopropyl[1,3]thiazolo[4,5-b]pyridine-5-carboxamide], the values for the IC50 on Pim-2, at Pim-3 and at Pim-1 were 0.1 to 1 µM, no more than 0.01 µM and no more than 0.01 µM, respectively.
